Data from ChEMBL document CHEMBL1909046, “DrugMatrix in vitro pharmacology data”.

Experiments:
[1] = molecular target: Tyrosine-protein kinase Lck (Homo sapiens, UniProt P06239); assay: DRUGMATRIX: Protein Tyrosine Kinase, LCK enzyme inhibition (substrate: Poly(Glu:Tyr)); type: cell-based, Insect cells; details: insect cells; Not Active = under 50% inhibition at 10 µM
Histamine H2 receptor = Histamine H2 receptor (Homo sapiens, UniProt P25021); type: cell membranes, CHO-K1, Membrane; details: cho-k1; note: in other assays of this panel Not Active means under 50% inhibition at 10 µM
Cathepsin G = molecular target: T1, Cathepsin G (Homo sapiens, UniProt P08311); type: tissue-based; details: neutrophil;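 note: inhibition of Cathepsin G enzyme activity, tested on an AMC-conjugated peptide substrate; in other assays of this panel Not Active means under 50% inhibition at 10 µM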
T1 sequence (P08311 whole entry): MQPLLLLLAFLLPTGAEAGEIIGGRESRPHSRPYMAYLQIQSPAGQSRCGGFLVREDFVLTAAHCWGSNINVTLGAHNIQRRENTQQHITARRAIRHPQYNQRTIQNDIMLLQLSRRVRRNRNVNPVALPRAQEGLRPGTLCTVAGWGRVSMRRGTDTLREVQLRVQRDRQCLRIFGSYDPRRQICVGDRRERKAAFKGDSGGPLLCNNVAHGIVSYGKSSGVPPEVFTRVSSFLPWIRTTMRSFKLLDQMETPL

[2] = molecular target: Protein kinase C alpha type (Homo sapiens, UniProt P17252); type: cell-based; details: sf9;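 note: inhibition of PKCalpha kinase activity measured in an enzyme assay with histone as the phosphorylation substrate; in other assays of this panel Not Active means under 50% inhibition at 10 µM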
[3] = DRUGMATRIX: Platelet-Derived Growth Factor (PDGF) radioligand binding (ligand: [125I] PDGF); type: cell-based; details: nih3t3; Not Active = under 50% inhibition at 10 µM
Cytochrome P450 2C19 = Cytochrome P450 2C19 (Homo sapiens, UniProt P33261); details: bti-tn-5b1-4; note: in other assays of this panel Not Active means under 50% inhibition at 10 µM
[4] = DRUGMATRIX: beta-Lactamase enzyme inhibition (substrate: Nitrocefin); set-up: species or system Bacillus cereus; details: Not Active = under 50% inhibition at 10 µM

Tyrosine-protein kinase Lck, sequence (P06239 whole entry): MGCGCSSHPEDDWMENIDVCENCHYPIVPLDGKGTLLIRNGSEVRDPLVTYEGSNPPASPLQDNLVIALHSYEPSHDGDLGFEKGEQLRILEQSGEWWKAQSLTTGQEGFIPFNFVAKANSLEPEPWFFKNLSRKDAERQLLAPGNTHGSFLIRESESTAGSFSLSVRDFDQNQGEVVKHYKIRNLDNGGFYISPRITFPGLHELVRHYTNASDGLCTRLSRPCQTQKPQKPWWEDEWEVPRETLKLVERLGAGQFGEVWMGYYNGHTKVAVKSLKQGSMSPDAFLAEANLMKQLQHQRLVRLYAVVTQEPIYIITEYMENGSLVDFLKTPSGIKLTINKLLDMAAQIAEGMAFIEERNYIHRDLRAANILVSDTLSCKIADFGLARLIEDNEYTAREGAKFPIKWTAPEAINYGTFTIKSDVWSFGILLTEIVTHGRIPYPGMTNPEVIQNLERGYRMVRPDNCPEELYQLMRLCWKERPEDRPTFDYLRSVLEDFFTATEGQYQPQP
Histamine H2 receptor, sequence (P25021 whole entry): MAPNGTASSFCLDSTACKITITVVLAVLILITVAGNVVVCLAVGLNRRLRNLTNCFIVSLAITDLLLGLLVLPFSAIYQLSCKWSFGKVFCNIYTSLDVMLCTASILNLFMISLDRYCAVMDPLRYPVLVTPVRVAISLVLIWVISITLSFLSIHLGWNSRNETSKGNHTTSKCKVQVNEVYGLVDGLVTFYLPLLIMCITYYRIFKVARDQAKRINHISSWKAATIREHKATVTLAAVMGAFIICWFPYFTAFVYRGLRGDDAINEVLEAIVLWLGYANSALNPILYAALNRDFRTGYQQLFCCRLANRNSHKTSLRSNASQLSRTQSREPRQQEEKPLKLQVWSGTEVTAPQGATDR
Cytochrome P450 2C19, sequence (P33261 whole entry): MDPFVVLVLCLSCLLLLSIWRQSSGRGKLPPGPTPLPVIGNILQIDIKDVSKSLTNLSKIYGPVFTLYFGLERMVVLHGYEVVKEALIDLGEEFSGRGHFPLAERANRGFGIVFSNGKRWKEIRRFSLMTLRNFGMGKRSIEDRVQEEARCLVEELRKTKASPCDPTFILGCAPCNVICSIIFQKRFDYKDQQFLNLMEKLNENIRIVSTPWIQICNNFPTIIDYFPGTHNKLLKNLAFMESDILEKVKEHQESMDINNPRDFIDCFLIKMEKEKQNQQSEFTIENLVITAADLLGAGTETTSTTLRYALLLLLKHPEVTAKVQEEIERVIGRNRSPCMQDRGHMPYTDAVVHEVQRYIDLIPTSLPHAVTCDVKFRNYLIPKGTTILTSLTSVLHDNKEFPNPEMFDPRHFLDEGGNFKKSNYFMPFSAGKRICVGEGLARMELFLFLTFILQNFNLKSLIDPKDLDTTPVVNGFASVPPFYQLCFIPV

COc1ccc(C[C@H]2NC[C@H](O)[C@H]2OC(C)=O)cc1 [ANISOMYCIN]
Not Active: IC50 [1] | Ki [1] | IC50 (Histamine H2 receptor) | Ki (Histamine H2 receptor) | IC50 (Cathepsin G) | Ki (Cathepsin G) | IC50 [2] | Ki [2] | IC50 [3] | Ki [3] | IC50 (Cytochrome P450 2C19) | Ki (Cytochrome P450 2C19) | IC50 [4] | Ki [4]

C[C@]12CCC(=O)C=C1CC[C@@H]1[C@@H]2CC[C@@]2(C)[C@H]1CC[C@]2(C)O [METHYLTESTOSTERONE]
Not Active: IC50 [1] | IC50 (Histamine H2 receptor) | IC50 (Cathepsin G) | IC50 [2] | IC50 [3] | Ki [3] | IC50 (Cytochrome P450 2C19) | Ki (Cytochrome P450 2C19) | IC50 [4] | Ki [4]

O=C1CC[C@@H](N2C(=O)c3ccccc3C2=O)C(=O)N1
Not Active: IC50 [1] | IC50 (Histamine H2 receptor) | IC50 (Cathepsin G) | IC50 [2] | IC50 [3] | Ki [3] | IC50 (Cytochrome P450 2C19) | Ki (Cytochrome P450 2C19) | IC50 [4] | Ki [4]

Cc1c(O)c(=O)ccn1C [DEFERIPRONE]
Not Active: IC50 [1] | IC50 (Histamine H2 receptor) | IC50 (Cathepsin G) | IC50 [2] | IC50 [3] | Ki [3] | IC50 (Cytochrome P450 2C19) | Ki (Cytochrome P450 2C19) | IC50 [4] | Ki [4]

NC1=NC(=O)C(c2ccccc2)O1 (stereo not drawn) [PEMOLINE]
Not Active: IC50 [1] | IC50 (Histamine H2 receptor) | IC50 (Cathepsin G) | IC50 [2] | IC50 [3] | Ki [3] | IC50 (Cytochrome P450 2C19) | Ki (Cytochrome P450 2C19) | IC50 [4] | Ki [4]

CCCN1C[C@H](CSC)C[C@@H]2c3cccc4[nH]cc(c34)C[C@H]21 [PERGOLIDE]
Not Active: IC50 [1] | IC50 (Histamine H2 receptor) | IC50 (Cathepsin G) | IC50 [2] | IC50 [3] | Ki [3] | IC50 (Cytochrome P450 2C19) | Ki (Cytochrome P450 2C19) | IC50 [4] | Ki [4]

Clc1cccc(Cl)c1NC1=NCCN1 [CLONIDINE]
Not Active: IC50 [1] | IC50 (Histamine H2 receptor) | IC50 (Cathepsin G) | IC50 [2] | IC50 [3] | Ki [3] | IC50 (Cytochrome P450 2C19) | Ki (Cytochrome P450 2C19) | IC50 [4] | Ki [4]

C=C(C)C1(O)OC(=O)C=C1OC (stereo not drawn) [PENICILLIC ACID]
Not Active: IC50 [1] | IC50 (Histamine H2 receptor) | IC50 (Cathepsin G) | IC50 [2] | IC50 [3] | Ki [3] | IC50 (Cytochrome P450 2C19) | Ki (Cytochrome P450 2C19) | IC50 [4] | Ki [4]

C[C@H](CS)C(=O)N1CCC[C@H]1C(=O)O [CAPTOPRIL]
Not Active: IC50 [1] | IC50 (Histamine H2 receptor) | IC50 (Cathepsin G) | IC50 [2] | IC50 [3] | Ki [3] | IC50 (Cytochrome P450 2C19) | Ki (Cytochrome P450 2C19) | IC50 [4] | Ki [4]

C[C@H]1O[C@@H](O[C@H]2[C@@H](O)C[C@H](O[C@H]3[C@@H](O)C[C@H](O[C@H]4CC[C@@]5(C)[C@H](CC[C@@H]6[C@@H]5C[C@@H](O)[C@]5(C)[C@@H](C7=CC(=O)OC7)CC[C@]65O)C4)O[C@@H]3C)O[C@@H]2C)C[C@H](O)[C@@H]1O [DIGOXIN]
Not Active: IC50 [1] | IC50 (Histamine H2 receptor) | IC50 (Cathepsin G) | IC50 [2] | IC50 [3] | Ki [3] | IC50 (Cytochrome P450 2C19) | Ki (Cytochrome P450 2C19) | IC50 [4] | Ki [4]

CN(C)C(=O)Oc1cc(OC(=O)N(C)C)cc(C(O)CNC(C)(C)C)c1 (stereo not drawn) [BAMBUTEROL]
Not Active: IC50 [1] | IC50 (Histamine H2 receptor) | IC50 (Cathepsin G) | IC50 [2] | IC50 [3] | Ki [3] | IC50 (Cytochrome P450 2C19) | Ki (Cytochrome P450 2C19) | IC50 [4] | Ki [4]

CC(C)[C@H]1C(=O)N2CCC[C@H]2[C@]2(O)O[C@](NC(=O)[C@@H]3C=C4c5cccc6[nH]cc(c56)C[C@H]4N(C)C3)(C(C)C)C(=O)N12 [ERGOCORNINE]
Not Active: IC50 [1] | IC50 (Histamine H2 receptor) | IC50 (Cathepsin G) | IC50 [2] | IC50 [3] | Ki [3] | IC50 (Cytochrome P450 2C19) | Ki (Cytochrome P450 2C19) | IC50 [4] | Ki [4]

C[C@](N)(Cc1ccc(O)c(O)c1)C(=O)O [METHYLDOPA]
Not Active: IC50 [1] | IC50 (Histamine H2 receptor) | IC50 (Cathepsin G) | IC50 [2] | IC50 [3] | Ki [3] | IC50 (Cytochrome P450 2C19) | Ki (Cytochrome P450 2C19) | IC50 [4] | Ki [4]

CCOC(=O)C1=C(COCCN)NC(C)=C(C(=O)OC)C1c1ccccc1Cl (stereo not drawn) [AMLODIPINE]
Not Active: IC50 [1] | IC50 (Histamine H2 receptor) | IC50 (Cathepsin G) | IC50 [2] | IC50 [3] | Ki [3] | IC50 (Cytochrome P450 2C19) | Ki (Cytochrome P450 2C19) | IC50 [4] | Ki [4]

LEAD (II) ACETATE
Not Active: IC50 [1] | Ki [1] | IC50 (Histamine H2 receptor) | Ki (Histamine H2 receptor) | IC50 (Cathepsin G) | Ki (Cathepsin G) | IC50 [2] | Ki [2] | IC50 [3] | Ki [3] | IC50 (Cytochrome P450 2C19) | Ki (Cytochrome P450 2C19) | IC50 [4] | Ki [4]

CC(O)CO (stereo not drawn) [PROPYLENE GLYCOL]
Not Active: IC50 [1] | IC50 (Histamine H2 receptor) | IC50 (Cathepsin G) | IC50 [2] | IC50 [3] | Ki [3] | IC50 (Cytochrome P450 2C19) | Ki (Cytochrome P450 2C19) | IC50 [4] | Ki [4]

CCCC1O[C@@H]2C[C@H]3[C@@H]4CCC5=CC(=O)C=C[C@]5(C)[C@H]4[C@@H](O)C[C@]3(C)[C@]2(C(=O)CO)O1 (stereo partly drawn) [BUDESONIDE]
Not Active: IC50 [1] | IC50 (Histamine H2 receptor) | IC50 (Cathepsin G) | IC50 [2] | IC50 [3] | Ki [3] | IC50 (Cytochrome P450 2C19) | Ki (Cytochrome P450 2C19) | IC50 [4] | Ki [4]

CC1Cc2ccccc2N1NC(=O)c1ccc(Cl)c(S(N)(=O)=O)c1 (stereo not drawn) [INDAPAMIDE]
Not Active: IC50 [1] | IC50 (Histamine H2 receptor) | IC50 (Cathepsin G) | IC50 [2] | IC50 [3] | Ki [3] | IC50 (Cytochrome P450 2C19) | Ki (Cytochrome P450 2C19) | IC50 [4] | Ki [4]

CCC1(c2ccc(N)cc2)CCC(=O)NC1=O (stereo not drawn) [AMINOGLUTETHIMIDE]
Not Active: IC50 [1] | IC50 (Histamine H2 receptor) | IC50 (Cathepsin G) | IC50 [2] | IC50 [3] | Ki [3] | IC50 (Cytochrome P450 2C19) | Ki (Cytochrome P450 2C19) | IC50 [4] | Ki [4]
